Experimental data taken from article PMC7496286, “The Selectivity of Fosfosal for STAT5b over STAT5a is Mediated by Arg566 in the Linker Domain” (Chembiochem, 2020).

Key:
[1] = biological target: T1, STAT5b Arg566Trp (Homo sapiens, UniProt P51692, R566W); assay: FP-based competitive binding assay, STAT5b Arg566Trp
T1 construct: His; made in house
T1 sequence (P51692 1-787 R566W): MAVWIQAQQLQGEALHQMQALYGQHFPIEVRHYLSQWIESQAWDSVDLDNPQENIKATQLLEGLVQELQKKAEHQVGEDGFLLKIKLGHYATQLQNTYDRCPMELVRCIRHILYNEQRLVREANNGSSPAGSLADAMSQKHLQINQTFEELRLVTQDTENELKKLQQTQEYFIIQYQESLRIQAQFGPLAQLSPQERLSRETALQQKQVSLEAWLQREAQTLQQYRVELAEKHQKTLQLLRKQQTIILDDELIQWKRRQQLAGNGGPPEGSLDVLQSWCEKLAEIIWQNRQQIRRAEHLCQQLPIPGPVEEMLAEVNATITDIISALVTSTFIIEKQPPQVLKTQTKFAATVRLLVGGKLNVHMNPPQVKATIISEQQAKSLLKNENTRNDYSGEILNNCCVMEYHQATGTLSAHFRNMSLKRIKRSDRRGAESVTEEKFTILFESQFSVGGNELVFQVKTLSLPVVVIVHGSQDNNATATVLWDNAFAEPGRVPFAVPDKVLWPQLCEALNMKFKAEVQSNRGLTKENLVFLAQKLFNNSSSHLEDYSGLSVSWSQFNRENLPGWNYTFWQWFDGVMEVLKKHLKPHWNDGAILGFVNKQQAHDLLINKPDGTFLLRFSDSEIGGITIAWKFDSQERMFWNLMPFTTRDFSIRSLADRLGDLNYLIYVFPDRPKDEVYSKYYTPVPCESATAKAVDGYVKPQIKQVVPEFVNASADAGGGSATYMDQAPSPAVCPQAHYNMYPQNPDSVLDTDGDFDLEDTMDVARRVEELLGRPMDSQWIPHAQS
Method: (§1) Fluorescence polarization assays
(§2) The ability of test compounds to displace 5-carboxyfluorescein-GY(PO3H2)LVLDKW (final concentration: 10 nM) from the SH2 domain of STAT5a/b proteins was analyzed. Proteins […]
(§3) was applied in dilution series comprising the following concentrations: 0.024 – 200 µM […]
(§4) and 0.146 – 600 µM (STAT5b Arg566Glu), respectively. The assays were performed in buffer containing 10 mM Tris, 50 mM NaCl, 1 mM DTT, 1 mM EDTA and 0.1% (v/v) NP-40. Fosfosal was dissolved in DMSO. STAT5a/b proteins and fosfosal were incubated at room temperature for 1 h before adding peptide. Samples were transferred to 384-well microtiter plates and fluorescence polarization was read after a further 1 h incubation time. All measurements were performed in triplicate (n=3), except for STAT5b (n=6) and STAT5a Trp566Arg (n=4). Percent binding was calculated based on a logarithmic curve fit using OriginPro 8G software. IC50 values were converted to Ki values using the published equation.[4] […]
(§5) [4] Z. Nikolovska-Coleska, R. Wang, X. Fang, H. Pan, Y. Tomita, P. Li, P. P. Roller, K.
(§6) Krajewski, N. G. Saito, J. A. Stuckey, S. Wang, Anal. Biochem. 2004, 332, 261-273.

[2] = biological target: T2, STAT5a Trp566Arg (Homo sapiens, UniProt P42229, W566R); assay: FP-based competitive binding assay, STAT5a Trp566Arg
T2 construct: His; made in house
T2 sequence (P42229 1-794 W566R): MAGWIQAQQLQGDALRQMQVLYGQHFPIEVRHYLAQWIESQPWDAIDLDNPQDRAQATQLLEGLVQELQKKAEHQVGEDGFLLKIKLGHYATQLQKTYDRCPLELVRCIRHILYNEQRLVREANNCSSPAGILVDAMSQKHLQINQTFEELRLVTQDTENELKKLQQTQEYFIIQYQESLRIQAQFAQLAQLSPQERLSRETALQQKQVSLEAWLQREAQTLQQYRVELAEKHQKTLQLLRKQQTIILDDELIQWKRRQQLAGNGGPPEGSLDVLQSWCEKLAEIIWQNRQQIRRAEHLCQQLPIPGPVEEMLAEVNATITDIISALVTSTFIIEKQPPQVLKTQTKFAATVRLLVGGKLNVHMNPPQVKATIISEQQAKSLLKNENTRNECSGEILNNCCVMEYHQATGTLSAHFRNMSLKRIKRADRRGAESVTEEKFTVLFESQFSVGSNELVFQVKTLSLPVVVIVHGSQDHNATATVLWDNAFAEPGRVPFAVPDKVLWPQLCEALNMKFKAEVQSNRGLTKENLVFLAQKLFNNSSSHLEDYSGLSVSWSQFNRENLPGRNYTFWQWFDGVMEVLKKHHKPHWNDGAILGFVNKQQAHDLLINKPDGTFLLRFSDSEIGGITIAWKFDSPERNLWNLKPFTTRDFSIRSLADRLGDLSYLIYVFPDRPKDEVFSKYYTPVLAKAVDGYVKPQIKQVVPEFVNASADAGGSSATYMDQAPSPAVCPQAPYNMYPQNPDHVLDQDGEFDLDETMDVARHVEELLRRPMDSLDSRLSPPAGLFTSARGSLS
Method: as §1, §2, §3, §4, §5, §6

Compound | Kd [1] | Kd [2] | inhibition at 600 µM ([1]; STAT5b Arg566Trp, 600 μM, the highest concentration tested) | IC50 ([2]; STAT5a Trp566Arg) | Ki ([2]; STAT5a Trp566Arg, Ki calculated from IC50, n=4) | increase of activity against STAT5a Trp566Arg compared to wild type STAT5a ([2]; ratio of Ki values)
CC(C)C[C@H](NC(=O)[C@H](Cc1ccc(OP(=O)(O)O)cc1)NC(=O)CNC(=O)c1ccc2c(c1)C(=O)OC21c2ccc(O)cc2Oc2cc(O)ccc21)C(=O)N[C@H](C(=O)N[C@@H](CC(C)C)C(=O)N[C@@H](CC(=O)O)C(=O)N[C@@H](CCCCN)C(=O)N[C@@H](Cc1c[nH]c2ccccc12)C(=O)O)C(C)C [5-carboxyfluorescein-GY(PO3H2)LVLDKW] | 289 nM | 43 nM |  |  |  | 
O=C(O)c1ccccc1OP(=O)(O)O [fosfosal, O‐phosphorylated salicylic acid] |  |  | 24 ± 2% | 21 ± 1.5 µM | 10.2 ± 0.7 µM | 14 fold
